According to PMC12227259, “PubChem BioAssays 1063: A Poorly Exploited Source of New Antileishmanial Compounds” (Journal of Parasitology Research, 2025):
Like-named read-outs stand apart in the source and are kept apart here.

What was measured:
[1] = tested on: L. mexicana promastigotes; assay: Growth inhibition assay of promastigotes (pNPP); format: cell-based, Leishmania (Leishmania) mexicana MNYC/BZ/62/M379; settings: Leishmania mexicana, read-out: Promastigotes (IC50 ± SD) L. mexicana
Text: (§1) Leishmania (Leishmania) amazonensis MHOM/BR/77/LTB0016 reference strain was kindly donated by the Department of Immunology of Fundação Oswaldo Cruz (Fiocruz), Brazil. Leishmania (Leishmania) mexicana MNYC/BZ/62/M379 and L. major MHOM/IL/81/Friedlin reference strains were kindly donated by Paul A. Bates, Division of Biomedical and Life Sciences, Faculty of Health and Medicine, Lancaster University, United Kingdom. Leishmania (Leishmania) infantum MHOM/FR/78/LEM75 was kindly donated by the Department of Parasitology, Faculty of Pharmacy, Universidad Complutense de Madrid, Spain. The promastigotes were cultivated at 26°C in Medium 199 (Gibco, Grand Island, NY, United States) supplemented with 10% heat-inactivated (56°C, 30 min) fetal bovine serum (Gibco, Grand Island, NY, United States) and antibiotics (200 IU penicillin and 200 μg/mL streptomycin). Exponential multiplication of the promastigotes of the four species was attained by passages every 3–4 days. L. mexicana axenic amastigotes were cultured in Schneider's Insect Medium (Sigma-Aldrich, St. Louis, MO, United States) at pH 5.4, supplemented with 20% heat-inactivated fetal bovine serum and antibiotics (as above).
(§2) The growth inhibition assay of promastigotes was conducted according to Bodley et al.'s procedure, with minor modifications. Briefly, 96-well culture plates were seeded with 100 μL culture medium 199 containing 5 × 10^5 log-phase promastigotes and 100 μL of twofold serial dilutions of the test compounds in culture medium. The plates were sealed with parafilm and incubated for 48 h at 26°C. Negative control wells contained promastigotes and DMSO at 0.5%, and positive wells contained promastigotes and 2.7 μM amphotericin B deoxycholate (Gibco, Grand Island, NY, United States). A series of amphotericin B concentrations was also tested in parallel to estimate its IC50 against promastigotes of the three Leishmania strains. After the incubation period, 30 μL of 3 mg/mL p-nitro-phenyl-phosphate (pNPP) (Sigma-Aldrich) in sodium acetate (pH 5.5, Sigma-Aldrich) and 1% Triton X-100 (Sigma-Aldrich) were added to each well. Plates were incubated for other 3 h at 37°C, and 50 μL 0.25 M NaOH (Sigma-Aldrich) was added to change all the produced p-nitro-phenol to its yellow-colored form. Absorbance was then read in a Biotek Epoch microplate reader (Agilent, Santa Clara, CA, United States) at 405 nm. Half-maximal inhibitory concentrations (IC50) were estimated by nonlinear fitting of absorbance versus compound concentration to the sigmoid Emax equation [18]. Each drug concentration was tested in quadruplicate, and the assay was repeated three times.

[2] = tested on: L. infantum promastigotes; assay: Growth inhibition assay of promastigotes (pNPP); format: cell-based, Leishmania (Leishmania) infantum MHOM/FR/78/LEM75; settings: Leishmania infantum, read-out: Promastigotes (IC50 ± SD) L. infantum
Text: as §1, §2

[3] = tested on: L. amazonensis promastigotes; assay: Growth inhibition assay of promastigotes (pNPP); format: cell-based, Leishmania (Leishmania) amazonensis MHOM/BR/77/LTB0016; settings: Leishmania amazonensis, read-out: Promastigotes (IC50 ± SD) L. amazonensis
Text: as §1, §2

L. major promastigotes = assay: Growth inhibition assay of promastigotes (pNPP); format: cell-based, L. major MHOM/IL/81/Friedlin; settings: Leishmania major, read-out: Promastigotes (IC50 ± SD) L. major
Text: as §1, §2

[4] = tested on: L. mexicana intracellular amastigotes; assay: Intracellular amastigote transformation and proliferation assay; format: cell-based, Leishmania (Leishmania) mexicana; settings: for IC50: Leishmania mexicana, Peritoneal macrophage, read-out: L. mexicana amastigotes (IC50 ± SD)
Text: as §1
The activity of the test compounds against L. mexicana intracellular amastigotes was carried out by the transformation and proliferation assay as reported elsewhere. Briefly, mouse peritoneal macrophages were obtained by peritoneal lavage of BALB/c mice and cultivated in RPMI 1640 medium supplemented with fetal bovine serum and antibiotics as described above. The cells were seeded in 96-well culture plates at 10^5 cells/well (100 μL) and incubated at 37°C and 5% CO2 for 2 h. Then, macrophages were infected with L. mexicana axenic amastigotes at a rate of three parasites per host cell. After overnight incubation at 37°C and 5% CO2, noninternalized amastigotes and nonadhered macrophages were removed by the elimination of the culture medium and washing with phosphate buffer solution (PBS). Fresh RPMI 1640 medium containing serial dilutions of the test compounds was then added. Amphotericin B was tested in parallel at concentrations from 1.35 to 0.021 μM. Four replicates of each drug concentration were tested in every assay. Plates were incubated for 48 h at 37°C and 5% CO2.

[5] = Cytotoxicity, alamar blue; format: cell-based, BALB/c mice; settings: BALB/c, read-out: Cytotoxicity (CC50 ± SD)
Method: The cytotoxicity of the test compounds was assessed in primary cultures of mouse peritoneal macrophages as reported elsewhere, with minor modifications. Briefly, BALB/c mice were sacrificed by CO2 inhalation, and their peritoneal macrophages were collected by washing the abdominal cavity with cold RPMI 1640 (Gibco, Paisley, Scotland, United Kingdom) culture medium supplemented with antibiotics (sodium penicillin 200 IU and streptomycin 200 μg/mL) and 10% fetal bovine serum. The macrophages were distributed in 96-well culture plates at 10^5 cells/well. After 4 h incubation at 37°C and 5% CO2, the culture medium was replaced by fresh medium containing the test compounds, and the plates were incubated for another 48 h. Afterwards, 20 μL alamar blue (Thermo Fisher Scientific, Oregon, United States) was added per well. Incubation was continued for another 6–8 h at 37°C and 5% CO2 to measure the fluorescence of the reduced dye in a plate reader (excitation: 485 nm, emission: 590, scaling factor: 10/10, Fluoroskan Ascent FL 2.5 plate reader—Thermo Labsystems, Waltham, MA, United States). Fifty percent cytotoxic concentrations (CC50) were estimated by nonlinear fitting to the Emax sigmoid model. Each concentration was tested in triplicate, and each compound was tested in three independent studies.

L. mexicana = assay: Mouse model of cutaneous leishmaniasis, intralesional treatment; format: in vivo, BALB/c mice; settings: for lesion size versus amphotericin B–treated mice: at 21 days
Method: Female, 18–20 g, 8–10 weeks old BALB/c mice were supplied by the laboratory animal breeding facility of the Faculty of Medicine, National Autonomous University of México. They were maintained under controlled environmental conditions (room temperature 22°C–25°C, relative humidity 60%–65%, light cycle 12 h light–12 h dark) and were handled by qualified personnel. At the end of studies, mice were sacrificed by CO2 inhalation. The experimental protocol was approved by the Ethics in Research Committee and the Internal Committee on the Care and Use of Lab Animals (Code CICUAL 004-CIC-2019). All the experiments were conducted in accordance with the Mexican Regulation and the Institute of Laboratory Animal Research Guide for the care and use of laboratory animals.
Mice were infected by intradermal injection in the footpads with 10^7 stationary-phase L. mexicana promastigotes. Two weeks later, mice were randomly allocated in seven groups of 6–7 mice each. Four groups were treated intralesionally every 3 days (five doses) with 20 μL of any of the test compounds at 10 mg/mL in DMSO. […] The dorso-plantar thickness of the rear limbs was weekly measured from the beginning of treatment (14 days postinfection) to 2 weeks after the end of treatment. Feet were measured with a Vernier caliper, and lesion sizes were calculated by subtracting the value of the noninfected limb (left) to that of the infected one (right).
Two weeks after the end of treatment, mice were weighed, sacrificed by CO2 inhalation, and necropsied. The weights of the heart, liver, spleen, and left and right kidneys were determined. Both rear limbs were excised at the level of the tibiotarsal joint and weighed to calculate, by difference, the weight of the lesions. The number of parasites in the lesions was estimated by using the limiting dilution assay technique.

[6] = design: method as in PMID 6576723; settings: subcutaneous route; cited from earlier work
Trypanosoma brucei = tested on: Trypanosoma brucei; design: method as in PMID 27501246; settings: in vitro and in vivo; cited from earlier work
Trypanosoma cruzi = tested on: Trypanosoma cruzi; design: method as in PMID 27501246; settings: in vitro and in vivo; cited from earlier work
[7] = tested on: L. donovani axenic amastigotes; design: method as in PMID 27501246; settings: cited from earlier work
Leishmania = settings: cited from earlier work
[8] = intracellular amastigotes in mouse peritoneal macrophages, 48 h, then 72 h transformation at 26°C
[9] = primary mouse peritoneal macrophages
[10] = second mention, p = 0.0057 (Compound 5), p = 0.0030 (Compound 6)

Structure (SMILES) | IC50 ([1]; 48 h at 26°C, pNPP readout) [µM] | IC50 ([2]; 48 h at 26°C, pNPP readout) [µM] | IC50 ([3]; 48 h at 26°C, pNPP readout) [µM] | IC50 (L. major promastigotes; 48 h at 26°C, pNPP readout) [µM] | IC50 [4, 8] [µM] | CC50 at 48 h [5, 9] [µM] | other results
C[C@@H]1[C@H](O)[C@@H](C)/C=C/C=C/C=C/C=C/C=C/C=C/C=C/[C@H](O[C@@H]2O[C@H](C)[C@@H](O)[C@H](N)[C@@H]2O)C[C@@H]2O[C@](O)(C[C@@H](O)C[C@@H](O)[C@H](O)CC[C@@H](O)C[C@@H](O)CC(=O)O[C@H]1C)C[C@H](O)[C@H]2C(=O)O [AmB, amphotericin B deoxycholate, reference compound] | 0.042 ± 0.019 | 0.031 ± 0.002 | 0.031 ± 0.007 | 0.031 ± 0.008 | 0.48 ± 0.02 | 21 ± 2.1 | Selectivity index [4]: 44
OC(COc1cccc2ccccc12)CN1CCCC1 (centres unmarked) [Compound 1] | > 50 | 23.4 ± 9.2 | > 50 | 42.5 ± 7.2 | 26.3 ± 8.2 | 125 ± 11 | Selectivity index ([4]; CC50/IC50 (in amastigotes)): 5
CCN1CCN(C(=S)c2ccc(OC)cc2)CC1 [Compound 2] | > 50 | > 50 | > 50 | > 50 | > 50 | 127 ± 2.1 | 
COc1ccc2c(c1)sc(=N)n2C [Compound 3] | > 50 | > 50 | 30.6 ± 11 | > 50 | > 50 | > 257 | 
Nc1cnn(Cc2ccccc2F)c1 [Compound 4] | 11.1 ± 8.2 | 23.1 ± 7.6 | 23.7 ± 9.9 | 11.3 ± 2.2 | 8.9 ± 1.5 | 172 ± 6.9 | number of parasites in lesions versus controls, distribution-free multiple comparison test (L. mexicana; limiting dilution, 2 weeks after the end of treatment, p = 0.0170): statistically significant differences; Selectivity index ([4]; CC50/IC50 (in amastigotes)): 19
CC(C)OCCCn1c(=N)c(C(N)=S)cc2c(=O)n3ccccc3nc21 [Compound 5] | 27.2 ± 6.2 | 13.8 ± 4.1 | 28.6 ± 14.3 | 9.9 ± 1.9 | 1.1 ± 0.3 | 172 ± 7.9 | average lesion weight versus amphotericin B treated mice (L. mexicana; 2 weeks after the end of treatment, p = 0.023): statistically lower; lesion size versus amphotericin B–treated mice (L. mexicana; first mention, p = 0.0491): statistically smaller; lesion size versus amphotericin B–treated mice (L. mexicana; [10]): statistically smaller
CN1CCN(Cc2ccccc2Sc2ccccc2)CC1 [Compound 6] | 2.3 ± 0.54 | 2.7 ± 1 | 3 ± 0.42 | 4.6 ± 2.3 | 5.9 ± 2.8 |  | lesion size versus amphotericin B–treated mice (L. mexicana; [10]): statistically smaller; Selectivity index ([4]; CC50/IC50 (in amastigotes)): 10; CC50 ([5]; mouse peritoneal macrophages, 48 h): 60.9 ± 10.7 µM
O=C(Cn1cc([N+](=O)[O-])nc1[N+](=O)[O-])N1CCN(c2ccccc2)CC1 [Compound 7] |  |  |  |  |  |  | IC50 ([1]; 48 h): 0.76 ± 0.16 µM; IC50 ([2]; 48 h): 5.9 ± 1 µM; IC50 ([3]; 48 h): 1.2 ± 0.44 µM; IC50 (L. major promastigotes; 48 h): 2.9 ± 0.56 µM; IC50 ([4]; in Mus musculus): 0.23 ± 0.04 µM; CC50 at 48 h ([5]; mouse peritoneal macrophages): 25.2 ± 1.9 µM
C[S+](C)[O-] [DMSO, dimethyl sulfoxide] |  |  |  |  |  |  | 50% lethal single dose toxicity [6]: 13900 to 20500 mg/kg
Cc1nc(C)c(C(=O)Nc2ccc(F)c(-c3nc4ncc(-c5ccccn5)cn4n3)c2)o1 [GNF 6702] |  |  |  |  |  |  | activity against Trypanosoma brucei (Trypanosoma brucei): active; activity against Trypanosoma cruzi (Trypanosoma cruzi): active; increase in potency on optimization of hit GNF5343 [7]: 400 fold
CCN(CC)C(=S)SSC(=S)N(CC)CC [disulfiram] |  |  |  |  |  |  | in vivo activity in an experimental model of cutaneous leishmaniasis (Leishmania): in vivo activity
